Experimental data reported in patent US11076595B2, “1-(n,n-disubstituted carbamoyl) 4-(substituted sulfonyl)triazolin-5-one derivative, 4-(n,n-disubstituted carbamoyl) 1-(substituted sulfonyl)triazolin-5-one derivative, and herbicide containing said derivative as active ingredient” (HOKKO CHEMICAL INDUSTRY CO., LTD., priority 2017, dated 2021).

Assays:
Format in all cases: in vivo
Lindernia pyxidaria [1] = experiment: Test Example 12: herbicidal effect test by treatment during growing period in paddy field; settings: 120 g/10a; treatment seven days after sowing in flooded paddy pot; assessed 14 days after treatment
Outline: (§1)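 Puddled, fertilized paddy soil in Wagner pots, sown with 30 seeds per species at 0–1 cm and flooded to ~3 cm in a glass greenhouse. Emulsifiable concentrate dripped into water 7 days after sowing at 120 g a.i. per 10 are. Suppression % from dry weight vs untreated, 14 days post-treatment, two replicates.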

Monochoria vaginalis [2] = experiment: as above; settings: 120 g/10a; treatment seven days after sowing in flooded paddy pot; assessed 14 days after treatment
Outline: as §1

Echinochloa crus-galli [3] = experiment: as above; settings: 120 g/10a; treatment seven days after sowing in flooded paddy pot; assessed 14 days after treatment
Outline: as §1

Scirpus juncoides [4] = experiment: as above; settings: 120 g/10a; treatment seven days after sowing in flooded paddy pot; assessed 14 days after treatment
Outline: as §1

Lindernia pyxidaria [5] = experiment: Test Example 11: herbicidal effect test by soil treatment in paddy field; settings: 120 g/10a active ingredient, 14 days after treatment
Outline: (§2)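 Puddled paddy soil with N:P:K 17:17:17 fertilizer in Wagner pots; 30 seeds per species sown at 0–1 cm, flooded to about 3 cm, kept in a glass greenhouse. Water-diluted emulsifiable concentrate dripped in immediately after sowing at 120 g a.i. per 10 are. Suppression from dry weight versus untreated at 14 days.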

Monochoria vaginalis [6] = experiment: as above; settings: 120 g/10a active ingredient, 14 days after treatment
Outline: as §2

Echinochloa crus-galli [7] = experiment: as above; settings: 120 g/10a active ingredient, 14 days after treatment
Outline: as §2

Scirpus juncoides [8] = experiment: as above; settings: 120 g/10a active ingredient, 14 days after treatment
Outline: as §2

CCS(=O)(=O)n1ncn(C(=O)N(C)c2ccc(F)cc2F)c1=O [Compound 11-1126]
Weed suppression rate (%) Lindemia pyxidaria (Lindernia pyxidaria [1]): 70% | Weed suppression rate (%) Monochoria vaginalis (Monochoria vaginalis [2]): 70% | Weed suppression rate (%) Echinochloa crus-galli (Echinochloa crus-galli [3]): 100% | Weed suppression rate (%) Scirpus juncoides (Scirpus juncoides [4]): 100% | Weed suppression rate (%) Lindemia pyxidaria (Lindernia pyxidaria [5]): 90% | Weed suppression rate (%) Monochoria vaginalis (Monochoria vaginalis [6]): 70% | Weed suppression rate (%) Echinochloa crus-galli (Echinochloa crus-galli [7]): 100% | Weed suppression rate (%) Scirpus juncoides (Scirpus juncoides [8]): 100%

CC(C)S(=O)(=O)n1ncn(C(=O)N(C)c2ccc(F)cc2F)c1=O [Compound 11-1127]
Weed suppression rate (%) Lindemia pyxidaria (Lindernia pyxidaria [1]): 70% | Weed suppression rate (%) Monochoria vaginalis (Monochoria vaginalis [2]): 70% | Weed suppression rate (%) Echinochloa crus-galli (Echinochloa crus-galli [3]): 100% | Weed suppression rate (%) Scirpus juncoides (Scirpus juncoides [4]): 100% | Weed suppression rate (%) Lindemia pyxidaria (Lindernia pyxidaria [5]): 80% | Weed suppression rate (%) Monochoria vaginalis (Monochoria vaginalis [6]): 70% | Weed suppression rate (%) Echinochloa crus-galli (Echinochloa crus-galli [7]): 100% | Weed suppression rate (%) Scirpus juncoides (Scirpus juncoides [8]): 80%

Cc1ccc(S(=O)(=O)n2ncn(C(=O)N(C)c3ccc(F)cc3F)c2=O)cc1 [Compound 11-1131]
Weed suppression rate (%) Lindemia pyxidaria (Lindernia pyxidaria [1]): 70% | Weed suppression rate (%) Monochoria vaginalis (Monochoria vaginalis [2]): 90% | Weed suppression rate (%) Echinochloa crus-galli (Echinochloa crus-galli [3]): 100% | Weed suppression rate (%) Scirpus juncoides (Scirpus juncoides [4]): 80% | Weed suppression rate (%) Lindemia pyxidaria (Lindernia pyxidaria [5]): 100% | Weed suppression rate (%) Monochoria vaginalis (Monochoria vaginalis [6]): 70% | Weed suppression rate (%) Echinochloa crus-galli (Echinochloa crus-galli [7]): 100% | Weed suppression rate (%) Scirpus juncoides (Scirpus juncoides [8]): 100%

CN(C(=O)n1cnn(S(=O)(=O)c2ccc(F)cc2)c1=O)c1ccc(F)cc1F [Compound 11-1137]
Weed suppression rate (%) Lindemia pyxidaria (Lindernia pyxidaria [1]): 70% | Weed suppression rate (%) Monochoria vaginalis (Monochoria vaginalis [2]): 80% | Weed suppression rate (%) Echinochloa crus-galli (Echinochloa crus-galli [3]): 100% | Weed suppression rate (%) Scirpus juncoides (Scirpus juncoides [4]): 100% | Weed suppression rate (%) Lindemia pyxidaria (Lindernia pyxidaria [5]): 90% | Weed suppression rate (%) Monochoria vaginalis (Monochoria vaginalis [6]): 80% | Weed suppression rate (%) Echinochloa crus-galli (Echinochloa crus-galli [7]): 100% | Weed suppression rate (%) Scirpus juncoides (Scirpus juncoides [8]): 100%

Cc1cc(C)c(S(=O)(=O)n2ncn(C(=O)N(C)c3ccc(F)cc3F)c2=O)c(C)c1 [Compound 11-1140]
Weed suppression rate (%) Lindemia pyxidaria (Lindernia pyxidaria [1]): 80% | Weed suppression rate (%) Monochoria vaginalis (Monochoria vaginalis [2]): 90% | Weed suppression rate (%) Echinochloa crus-galli (Echinochloa crus-galli [3]): 100% | Weed suppression rate (%) Scirpus juncoides (Scirpus juncoides [4]): 100% | Weed suppression rate (%) Lindemia pyxidaria (Lindernia pyxidaria [5]): 100% | Weed suppression rate (%) Monochoria vaginalis (Monochoria vaginalis [6]): 90% | Weed suppression rate (%) Echinochloa crus-galli (Echinochloa crus-galli [7]): 100% | Weed suppression rate (%) Scirpus juncoides (Scirpus juncoides [8]): 100%

CN(C(=O)n1cnn(S(=O)(=O)c2cccs2)c1=O)c1ccc(F)cc1F [Compound 11-1147]
Weed suppression rate (%) Lindemia pyxidaria (Lindernia pyxidaria [1]): 70% | Weed suppression rate (%) Monochoria vaginalis (Monochoria vaginalis [2]): 90% | Weed suppression rate (%) Echinochloa crus-galli (Echinochloa crus-galli [3]): 100% | Weed suppression rate (%) Scirpus juncoides (Scirpus juncoides [4]): 100% | Weed suppression rate (%) Lindemia pyxidaria (Lindernia pyxidaria [5]): 100% | Weed suppression rate (%) Monochoria vaginalis (Monochoria vaginalis [6]): 70% | Weed suppression rate (%) Echinochloa crus-galli (Echinochloa crus-galli [7]): 100% | Weed suppression rate (%) Scirpus juncoides (Scirpus juncoides [8]): 70%

COc1ccc(S(=O)(=O)n2ncn(C(=O)N(c3c(F)cccc3F)C(C)C)c2=O)cc1 [Compound 11-1151]
Weed suppression rate (%) Lindemia pyxidaria (Lindernia pyxidaria [1]): 80% | Weed suppression rate (%) Monochoria vaginalis (Monochoria vaginalis [2]): 90% | Weed suppression rate (%) Echinochloa crus-galli (Echinochloa crus-galli [3]): 100% | Weed suppression rate (%) Scirpus juncoides (Scirpus juncoides [4]): 90% | Weed suppression rate (%) Lindemia pyxidaria (Lindernia pyxidaria [5]): 100% | Weed suppression rate (%) Monochoria vaginalis (Monochoria vaginalis [6]): 70% | Weed suppression rate (%) Echinochloa crus-galli (Echinochloa crus-galli [7]): 100% | Weed suppression rate (%) Scirpus juncoides (Scirpus juncoides [8]): 80%

COc1ccc(S(=O)(=O)n2ncn(C(=O)N(c3ccc(F)c(F)c3F)C(C)C)c2=O)cc1 [Compound 11-1153]
Weed suppression rate (%) Lindemia pyxidaria (Lindernia pyxidaria [1]): 70% | Weed suppression rate (%) Monochoria vaginalis (Monochoria vaginalis [2]): 100% | Weed suppression rate (%) Echinochloa crus-galli (Echinochloa crus-galli [3]): 100% | Weed suppression rate (%) Scirpus juncoides (Scirpus juncoides [4]): 90% | Weed suppression rate (%) Lindemia pyxidaria (Lindernia pyxidaria [5]): 100% | Weed suppression rate (%) Monochoria vaginalis (Monochoria vaginalis [6]): 90% | Weed suppression rate (%) Echinochloa crus-galli (Echinochloa crus-galli [7]): 100% | Weed suppression rate (%) Scirpus juncoides (Scirpus juncoides [8]): 60%

O=C(N(CC(F)(F)F)c1ccc(F)cc1F)n1cnn(S(=O)(=O)C2CCCCC2)c1=O [Compound 11-1156]
Weed suppression rate (%) Lindemia pyxidaria (Lindernia pyxidaria [1]): 90% | Weed suppression rate (%) Monochoria vaginalis (Monochoria vaginalis [2]): 60% | Weed suppression rate (%) Echinochloa crus-galli (Echinochloa crus-galli [3]): 90% | Weed suppression rate (%) Scirpus juncoides (Scirpus juncoides [4]): 30% | Weed suppression rate (%) Lindemia pyxidaria (Lindernia pyxidaria [5]): 80% | Weed suppression rate (%) Monochoria vaginalis (Monochoria vaginalis [6]): 30% | Weed suppression rate (%) Echinochloa crus-galli (Echinochloa crus-galli [7]): 70% | Weed suppression rate (%) Scirpus juncoides (Scirpus juncoides [8]): 30%
